{"source": "patent EP1044000B1", "about": "“COMBINATION THERAPY FOR THE TREATMENT OF AIDS” (MERCK & CO., INC., priority 1997, dated 1999)", "key": {"CYPIIIA4": {"target": "CYPIIIA4 (Homo sapiens, UniProt P08684)", "sequence (P08684 whole entry)": "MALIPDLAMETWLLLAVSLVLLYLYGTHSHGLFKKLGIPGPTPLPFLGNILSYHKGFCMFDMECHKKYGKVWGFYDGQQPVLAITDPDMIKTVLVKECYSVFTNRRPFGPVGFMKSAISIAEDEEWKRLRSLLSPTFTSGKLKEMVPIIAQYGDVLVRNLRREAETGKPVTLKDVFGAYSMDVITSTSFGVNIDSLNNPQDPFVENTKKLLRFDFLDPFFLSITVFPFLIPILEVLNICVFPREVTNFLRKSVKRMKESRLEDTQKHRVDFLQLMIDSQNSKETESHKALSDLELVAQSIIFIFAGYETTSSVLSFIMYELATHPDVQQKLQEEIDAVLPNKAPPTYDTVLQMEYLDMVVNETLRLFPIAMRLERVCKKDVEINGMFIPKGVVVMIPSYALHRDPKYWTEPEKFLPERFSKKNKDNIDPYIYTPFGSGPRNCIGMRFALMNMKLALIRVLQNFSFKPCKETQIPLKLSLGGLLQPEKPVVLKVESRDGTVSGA", "assay": "in vitro inhibition of CYPIIIA4", "type": "in vitro ADME"}, "[1]": {"assay": "Pharmacokinetic study of Compound A alone and in combination with Indinavir in healthy human males (Example 11)", "type": "in vivo", "settings": "for Cmax / Tmax / AUC / concentration at 8 h / concentration at 12 h / concentration at 24 h: male, human, plasma, po, fasted; for Cmax / Tmax: arithmetic mean; for AUC: arithmetic mean (CV %); for concentration at 8 h: plasma 8 hours after dosing, read-out: C8 hrs; for concentration at 12 h: plasma 12 hours after dosing, read-out: C12 rs; for concentration at 24 h: plasma 24 hours after dosing, read-out: C24 hrs", "description": "A double-blind, single-rising dose, alternating two-panel, four-period, placebo-controlled study was conducted for Compound A alone and in combination with Indinavir in healthy adult males in the fasted state. […] All of the doses of Compound A were administered as the sulfate salt form of Compound A. All of the Compound A doses were oral suspensions of the sulfate salt form in sterile water, except that the 600-mg doses administered to Panel B in the fourth period were tablets. Indinavir was administered in the form of CRIXIVAN® capsules. The safety of the subjects was monitored prior and subsequent to dosing by clinical adverse event reporting, measurement of vital signs, physical examinations, blood and urine laboratory safety tests, and ECGs. Plasma concentrations of Compound A were determined predose and at 0.5, 1, 1.5, 2, 3, 4, 6, 8, 12, 16, 20, 24, 30, 36 and 48 hours following each single dose in each period, using a reverse-phase HPLC column switching method with fluorescence detection."}, "[2]": {"assay": "Pharmacokinetic study of Compound A in combination with Indinavir with and without fasting (Example 12)", "type": "in vivo", "settings": "male, human, plasma, 600 mg Compound A (tablets) + 666 mg IDV (Indinavir), n=7; for concentration at 8 h / concentration at 12 h / concentration at 24 h: oral; for concentration at 8 h: plasma 8 hours after dosing, read-out: C8 hrs; for concentration at 12 h: plasma 12 hours after dosing, read-out: C12 hrs; for concentration at 24 h: plasma 24 hours after dosing, read-out: C24 hrs; for Cmax / Tmax / AUC: po, single oral dose; for Cmax / Tmax: arithmetic mean; for AUC: arithmetic mean (CV %)", "description": "All of the subjects received the regimen once in the fasted state and once with a high-fat breakfast. The two single-dose treatments (fasted, fed) were administered in randomized crossover fashion, separated by one week. For treatments with food a breakfast consisting of two eggs, two strips of bacon, toast with two pats of butter (2 x 12.5 g), 120 g of fried potatoes and 240 ml of whole milk were consumed in no more than 15 minutes, and the test medication was administered within 5 minutes after completion of the breakfast. […] All of the doses of Compound A were administered as the sulfate salt form of Compound A. All of the Compound A doses were tablets containing 200 mg of Compound A. Other ingredients in the tablets included microcrystalline cellulose (Avicel PH 101), mannitol SD 200, croscarmellose sodium, hydroxypropyl cellulose and magnesium stearate. The tablets were film coated with a suspension of hydroxypropyl methylcellulose, hydroxypropyl cellulose and titanium dioxide. The safety of the subjects was monitored prior and subsequent to dosing by clinical adverse event reporting, measurement of vital signs, physical examinations, blood and urine laboratory safety tests, and ECGs. Plasma concentrations of Compound A were determined predose and at 0.5, 1, 1.5, 2, 3, 4, 6, 8, 12, 16, 20, 24, 30, 36 and 48 hours following each single dose in each period, using a reverse-phase HPLC column switching method with fluorescence detection."}, "[3]": {"settings": "200 mg of Compound A with 800 mg of Indinavir relative to 200 mg of Compound A alone (Table 3 vs Table 2)"}, "[4]": {"settings": "200 mg Compound A + 800 mg IDV (Indinavir) co-administered, single oral dose, n=6"}, "[5]": {"settings": "200 mg Compound A + 1200 mg IDV (Indinavir) co-administered, single oral dose, n=6"}, "[6]": {"settings": "400 mg Compound A + 800 mg IDV (Indinavir) co-administered, single oral dose, n=6"}, "[7]": {"settings": "600 mg Compound A + 800 mg IDV (Indinavir) co-administered, single oral dose, n=8"}, "[8]": {"settings": "600 mg, 600 mg (tablets) single oral dose, sulfate salt, n=8"}, "[9]": {"settings": "600 mg, 600 mg single oral dose, suspension of sulfate salt, n=8"}, "[10]": {"settings": "1600 mg, 1600 mg single oral dose, suspension of sulfate salt, n=6"}, "[11]": {"settings": "2000 mg, 2000 mg single oral dose, suspension of sulfate salt, n=8"}}}
{"molecule": "CC(C)(C)NC(=O)[C@@H]1CN(Cc2cc3ccccc3o2)CCN1C[C@@H](O)C[C@@H](Cc1ccccc1)C(=O)N[C@H]1c2ccccc2C[C@H]1O", "note": "[Compound A, N-(2(R)-hydroxy-1(S)-indanyl)-2(R)-phenylmethyl-4-(S)-hydroxy-5-(1-(4-(2-benzo[b]furanylmethyl)-2(S)-N'-(t-butylcarboxamido)-piperazinyl))-pentaneamide]", "values": [{"measurement": "IC50", "setting": "CYPIIIA4", "value": 30, "unit": "µM"}, {"measurement": "AUC of Compound A higher for co-administration with Indinavir relative to Compound A alone", "setting": "[1]; [3]", "value": "about 30 x"}, {"measurement": "C8 hrs higher for co-administration with Indinavir relative to Compound A alone", "setting": "[1]; [3]", "value": "~46", "unit": "x"}, {"measurement": "Cmax higher for co-administration with Indinavir relative to Compound A alone", "setting": "[1]; [3]", "value": "about 19 x"}, {"measurement": "AUC higher than for administration of Compound A alone", "setting": "[1]; 600 mg of Compound A in combination with 800 mg of Indinavir versus Compound A alone", "value": "about 18 fold"}, {"measurement": "Cmax", "setting": "[1]; [4]", "value": 1580, "unit": "nM"}, {"measurement": "Tmax", "setting": "[1]; [4]", "value": 2.2, "unit": "h"}, {"measurement": "AUC", "setting": "[1]; [4]", "value": 7.45, "unit": "µM·h"}, {"measurement": "concentration at 8 h", "setting": "[1]; [4]", "value": 232, "unit": "nM"}, {"measurement": "concentration at 12 h", "setting": "[1]; [4]", "value": 70, "unit": "nM"}, {"measurement": "concentration at 24 h", "setting": "[1]; [4]", "value": 8, "unit": "nM"}, {"measurement": "Cmax", "setting": "[1]; [5]", "value": 1560, "unit": "nM"}, {"measurement": "Tmax", "setting": "[1]; [5]", "value": 2.3, "unit": "h"}, {"measurement": "AUC", "setting": "[1]; [5]", "value": 9.22, "unit": "µM·h"}, {"measurement": "concentration at 8 h", "setting": "[1]; [5]", "value": 416, "unit": "nM"}, {"measurement": "concentration at 12 h", "setting": "[1]; [5]", "value": 107, "unit": "nM"}, {"measurement": "concentration at 24 h", "setting": "[1]; [5]", "value": 10, "unit": "nM"}, {"measurement": "Cmax", "setting": "[1]; [6]", "value": 2350, "unit": "nM"}, {"measurement": "Tmax", "setting": "[1]; [6]", "value": 2.5, "unit": "h"}, {"measurement": "AUC", "setting": "[1]; [6]", "value": 12.2, "unit": "µM·h"}, {"measurement": "concentration at 8 h", "setting": "[1]; [6]", "value": 399, "unit": "nM"}, {"measurement": "concentration at 12 h", "setting": "[1]; [6]", "value": 124, "unit": "nM"}, {"measurement": "concentration at 24 h", "setting": "[1]; [6]", "value": 20, "unit": "nM"}, {"measurement": "Cmax", "setting": "[1]; [7]", "value": 3880, "unit": "nM"}, {"measurement": "Tmax", "setting": "[1]; [7]", "value": 3.3, "unit": "h"}, {"measurement": "AUC", "setting": "[1]; [7]", "value": 25.2, "unit": "µM·h"}, {"measurement": "concentration at 8 h", "setting": "[1]; [7]", "value": 1190, "unit": "nM"}, {"measurement": "concentration at 12 h", "setting": "[1]; [7]", "value": 352, "unit": "nM"}, {"measurement": "concentration at 24 h", "setting": "[1]; [7]", "value": 65, "unit": "nM"}, {"measurement": "Cmax", "setting": "[1]; [8]", "value": 211, "unit": "nM"}, {"measurement": "Tmax", "setting": "[1]; [8]", "value": 1.5, "unit": "h"}, {"measurement": "AUC", "setting": "[1]; [8]", "value": 1.42, "unit": "µM·h"}, {"measurement": "concentration at 8 h", "setting": "[1]; [8]", "value": 50, "unit": "nM"}, {"measurement": "concentration at 12 h", "setting": "[1]; [8]", "value": 38, "unit": "nM"}, {"measurement": "concentration at 24 h", "setting": "[1]; [8]", "value": 17, "unit": "nM"}, {"measurement": "Cmax", "setting": "[1]; [9]", "value": 208, "unit": "nM"}, {"measurement": "Tmax", "setting": "[1]; [9]", "value": 1.4, "unit": "h"}, {"measurement": "AUC", "setting": "[1]; [9]", "value": 1.41, "unit": "µM·h"}, {"measurement": "concentration at 8 h", "setting": "[1]; [9]", "value": 55, "unit": "nM"}, {"measurement": "concentration at 12 h", "setting": "[1]; [9]", "value": 39, "unit": "nM"}, {"measurement": "concentration at 24 h", "setting": "[1]; [9]", "value": 13, "unit": "nM"}, {"measurement": "Cmax", "setting": "[1]; [10]", "value": 613, "unit": "nM"}, {"measurement": "Tmax", "setting": "[1]; [10]", "value": 2, "unit": "h"}, {"measurement": "AUC", "setting": "[1]; [10]", "value": 4.72, "unit": "µM·h"}, {"measurement": "concentration at 8 h", "setting": "[1]; [10]", "value": 163, "unit": "nM"}, {"measurement": "concentration at 12 h", "setting": "[1]; [10]", "value": 93, "unit": "nM"}, {"measurement": "concentration at 24 h", "setting": "[1]; [10]", "value": 46, "unit": "nM"}, {"measurement": "Cmax", "setting": "[1]; [11]", "value": 1270, "unit": "nM"}, {"measurement": "Tmax", "setting": "[1]; [11]", "value": 2.5, "unit": "h"}, {"measurement": "AUC", "setting": "[1]; [11]", "value": 10.4, "unit": "µM·h"}, {"measurement": "concentration at 8 h", "setting": "[1]; [11]", "value": 444, "unit": "nM"}, {"measurement": "concentration at 12 h", "setting": "[1]; [11]", "value": 250, "unit": "nM"}, {"measurement": "concentration at 24 h", "setting": "[1]; [11]", "value": 105, "unit": "nM"}, {"measurement": "concentration at 8 h", "setting": "[2]; fasted", "value": 583, "unit": "nM"}, {"measurement": "concentration at 12 h", "setting": "[2]; fasted", "value": 188, "unit": "nM"}, {"measurement": "concentration at 24 h", "setting": "[2]; fasted", "value": 37, "unit": "nM"}, {"measurement": "concentration at 8 h", "setting": "[2]; fed (high-fat breakfast)", "value": 1320, "unit": "nM"}, {"measurement": "concentration at 12 h", "setting": "[2]; fed (high-fat breakfast)", "value": 433, "unit": "nM"}, {"measurement": "concentration at 24 h", "setting": "[2]; fed (high-fat breakfast)", "value": 58, "unit": "nM"}, {"measurement": "Cmax", "setting": "[2]; fasted", "value": 2920, "unit": "nM"}, {"measurement": "Tmax", "setting": "[2]; fasted", "value": 2.6, "unit": "h"}, {"measurement": "AUC", "setting": "[2]; fasted", "value": 15.7, "unit": "µM·h"}, {"measurement": "Cmax", "setting": "[2]; fed (high-fat breakfast)", "value": 4230, "unit": "nM"}, {"measurement": "Tmax", "setting": "[2]; fed (high-fat breakfast)", "value": 3.7, "unit": "h"}, {"measurement": "AUC", "setting": "[2]; fed (high-fat breakfast)", "value": 25.3, "unit": "µM·h"}]}
